This is an account of results in patent publication EP0558960A1, “Medicament for the prophylaxis and treatment of the neurologic and psychiatric disorders caused by alcohol abuse, which contains thiamine, folic acid and cobalamine” (priority 1992, dated 1993).

The structures appear in SMILES notation.

Series [1] in a line: Availability and passage of the blood-brain barrier, Benfotiamin compared with Thiaminhydrochlorid. The class given is in vivo.
Series [2] can be described thus: Thiamine levels in plasma and erythrocytes after oral administration of the medicament with Benfotiamin. The class given is in vivo. As to conditions: comparator not printed in b22 (Thiaminhydrochlorid).
Setting [3] is: in contrast to Thiaminhydrochlorid.

For the compound `CC(=C(CCOP(=O)(O)O)SC(=O)c1ccccc1)N(C=O)Cc1cnc(C)nc1N` [Benfotiamin], the Verfügbarkeit result in series [1] (compared with Thiaminhydrochlorid) is “besser verfügbar als Thiaminhydrochlorid”. Also, in series [1] (setting [3]), the Blut-Hirn-Schranke result is listed as “passiert” and the Liquor cerebrospinalis result is reported as “anreichert”. Further, in series [2], the “höhere Anstiege von Thiamin und Thiamindiphosphat-coenzymen in den Erythrozyten” value is recorded as “ca. 130 -fach” and the “höhere Plasmaspiegel an Thiamin” value is reported as 10 -fach.
